How the values were obtained:
Format in all cases: in vivo, rat
[1] = system: rats with nonalcoholic steatohepatitis induced by a high-fat diet and CCl4; experiment: Four indices of serum hepatic fibrosis, high-fat diet and CCl4 model; conditions: positive control group
Protocol: (§1) Starting from the seventh week, they received subcutaneous injections of a 30% CCl4 olive oil solution at a dosage of 0.2 ml/100 g behind their back twice per week for a total of four times. Once the model was successfully replicated, the corresponding drugs were administered orally (10 ml/kg) in each treatment group, and both the normal control group and the model group received equal volumes of a 0.5% CMC-Na solution once daily for ten consecutive weeks. Throughout the experimental period, the rats were provided with ad libitum access to food and water, while the animal chamber was maintained under controlled conditions of quietness, natural lighting, a temperature of 25±0.5° C., and a humidity level of 55±5%. The rats' body weights were measured once per week and recorded.
At the end of the tenth week of administration, all rats underwent a 16-hour fasting period following their final administration and were intraperitoneally injected with a 20% ulinastatin solution (10 ml/kg) for anesthesia. Subsequently, blood samples were collected from the abdominal aorta and allowed to stand for one hour, and then centrifuged at 4° C. for fifteen minutes at a speed of 3000 r/min. Finally, the upper serum was stored at −80° C. Following the instructions provided with the biochemical index detection kit, levels of HDL-C, LDL-C, NEFA, AST, ALT, UA, TC, TG, PCIII, IV-C LN and HA in rat serum were determined.

[2] = Body weight of rats, high-fat diet non-alcoholic steatohepatitis model; conditions: positive control group, in g (unit assumed)
Protocol: The normal control group was fed a standard diet for twelve weeks while the other groups were fed a high-fat diet consisting of 88% basal diet+10% lard+2% cholesterol for twelve weeks. After establishing the model, the drug groups received their respective treatments at a dosage of 10 ml/kg while the normal and model groups received an equal volume of 0.5% CMC-Na solution. The rats were provided with ad libitum access to water and food, while the animal chamber was maintained under controlled conditions of quietness, natural lighting, a temperature of 25±0.5° C., and a humidity level of 55±5%. The rats' body weights were measured once per week and recorded.
The rats were weighed weekly to monitor the fluctuations in body weight within each experimental group.

[3] = system: rats with nonalcoholic steatohepatitis induced by a high-fat diet and CCl4; experiment: Liver histopathology (HE, oil red, Masson staining), high-fat diet and CCl4 model; conditions: positive control groups and NR218 high-, medium-, low-dose groups
Protocol: as §1, with “The normal control group were fed a standard diet while the other groups were exclusively fed a high-fat diet consisting of 88% basal diet +10% lard +2% cholesterol for the initial six weeks. Starting” for “Starting”
After collecting blood samples from the abdominal aorta of rats, the liver tissue was isolated and fixed in a 10% neutral formalin solution. Following standard procedures for embedding, sectioning, dewaxing, staining, clearing, and sealing, the liver tissues were subjected to HE (hematoxylin-eosin), Masson's trichrome, and oil red staining techniques respectively. […]

SMILES: COC(=O)c1cc(OC)c2c(c1-c1c(CO)cc(OC)c3c1OCO3)OCO2 [Bicyclol]
- HA [1]: 45.78 ± 22.99 µg/L
- IV-C [1]: 13.22 ± 4.50 µg/L
- LN [1]: 110.64 ± 44.60 µg/L
- PC-III [1]: 8.78 ± 1.87 µg/L
- body weight ([2]; week 0 (pre-administration)): 195.09 ± 3.95
- body weight ([2]; week 1 (pre-administration)): 254.99 ± 12.09
- body weight ([2]; week 2 (pre-administration)): 307.37 ± 12.92
- body weight ([2]; week 3 (pre-administration)): 343.86 ± 17.21
- body weight ([2]; week 4 (pre-administration)): 379.51 ± 22.29
- body weight ([2]; week 5 (pre-administration)): 413.81 ± 26.94
- body weight ([2]; week 6 (pre-administration)): 444.77 ± 32.35
- body weight ([2]; week 7 (pre-administration)): 461.64 ± 35.88
- body weight ([2]; week 8 (pre-administration)): 493.67 ± 41.04
- body weight ([2]; week 9 (pre-administration)): 510.27 ± 41.17
- body weight ([2]; week 10 (pre-administration)): 526.93 ± 47.38
- body weight ([2]; week 11 (pre-administration)): 541.47 ± 50.20
- body weight ([2]; week 12 (pre-administration)): 550.05 ± 58.70
- body weight ([2]; week 13): 526.35 ± 68.66
- body weight ([2]; week 14): 515.27 ± 58.62
- body weight ([2]; week 15): 519.07 ± 54.38
- body weight ([2]; week 16): 539.33 ± 58.40
- body weight ([2]; week 17): 562.79 ± 61.59
- body weight ([2]; week 18): 588.75 ± 70.94
- body weight ([2]; week 19): 593.71 ± 72.81
- body weight ([2]; week 20): 586.53 ± 112.38
- Oil red O staining of liver tissue (in words) [3]: significantly ameliorated steatosis severity and reduced lipid droplet content

From patent US20250302795A1, “SMALL MOLECULE COMPOUNDS WITH NEGATIVE REGULATORY EFFECTS ON Nrf2 SIGNALING [sequence] AND THEIR POTENTIAL APPLICATIONS” (Beijing Hebabiz Biotechnology Co., Inc., priority 2022, published 2025)
